Measurements from US5434132A, “Neuropeptide antagonists” (Imperial Cancer Research Technology, Ltd., priority 1988, dated 1995).
Where two headings read alike, the source gives them in different places. Non-standard residues stand in square brackets, D forms with d. Residues, ends and D or L forms follow the SMILES beside them. No end group written: not given here. *: point of attachment. X1 = CC(C)C[C@@H](CN[C@@H](CC(C)C)C(N)=O)N*; pGlu = O=C1CC[C@@H](C(=O)O)N1

Tests used:
[1] = system: small cell lung cancer (SCLC) cell lines; experiment: Growth in vitro of small cell lung cancer (SCLC) cell lines
Swiss 3T3 cells [2] = system: Swiss 3T3 cells
Swiss 3T3 cells [3] = settings: references 4,12,13; cited from earlier work
vasopressin receptor [4] = target: T1, vasopressin receptor (Mus musculus, UniProt Q62463); settings: references 4,12,13; cited from earlier work
T1 construct: endogenous in cells; host or cells: Swiss 3T3 cells
T1 sequence (Q62463 whole entry): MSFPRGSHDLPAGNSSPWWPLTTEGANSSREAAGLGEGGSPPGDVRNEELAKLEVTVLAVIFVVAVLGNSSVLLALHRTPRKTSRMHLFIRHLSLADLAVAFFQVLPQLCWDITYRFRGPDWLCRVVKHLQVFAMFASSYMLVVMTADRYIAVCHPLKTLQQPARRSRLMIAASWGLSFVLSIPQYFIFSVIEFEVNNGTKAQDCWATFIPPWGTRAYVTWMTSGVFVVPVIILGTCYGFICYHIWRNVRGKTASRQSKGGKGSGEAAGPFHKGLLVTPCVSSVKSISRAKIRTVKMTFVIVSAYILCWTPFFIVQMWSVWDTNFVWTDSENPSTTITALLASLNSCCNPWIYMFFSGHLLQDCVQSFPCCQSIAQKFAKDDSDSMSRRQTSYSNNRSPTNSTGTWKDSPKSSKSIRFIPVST

bombesin/GRP receptor [5] = target: T2, bombesin/GRP receptor (Mus musculus, UniProt P21729); experiment: 125I-GRP binding to membrane preparations of Swiss 3T3 cells; parameters: species or system murine; settings: 0.5 nM 125I-GRP; for specific binding of 125I-GRP to membranes: addition at 1μM, 37° C., 10 minutes, None 305 ± 9, mean±SEM, n=3
T2 construct: Membrane protein (150 μg) prepared from Swiss 3T3 cells as described above; endogenous in cells; host or cells: Swiss 3T3 cells; membrane-enriched fraction prepared with 5 mM Mg2+
T2 sequence (P21729 whole entry): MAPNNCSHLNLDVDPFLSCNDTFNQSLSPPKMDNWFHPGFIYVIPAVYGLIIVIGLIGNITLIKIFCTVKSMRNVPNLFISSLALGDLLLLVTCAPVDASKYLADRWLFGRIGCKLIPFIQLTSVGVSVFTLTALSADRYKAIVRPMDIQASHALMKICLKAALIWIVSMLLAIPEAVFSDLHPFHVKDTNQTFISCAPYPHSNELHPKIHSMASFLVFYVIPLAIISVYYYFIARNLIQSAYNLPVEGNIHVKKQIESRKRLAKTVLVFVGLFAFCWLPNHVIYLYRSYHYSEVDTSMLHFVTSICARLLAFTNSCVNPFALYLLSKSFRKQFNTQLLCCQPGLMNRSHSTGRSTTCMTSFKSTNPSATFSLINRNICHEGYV
Method: Membrane preparation: Cultures in roller bottles were washed twice with 150 ml phosphate buffered saline (PBS) (0.14M NaCl, 5 mM KCl, 0.01M Na2 HPO4, 1.8 mM KH2 PO4; pH 7.2) at room temperature. The cells were then harvested at 4° C. by scraping into ice cold PBS containing 5 mM MgCl2, 1 mM [ethylenebis(oxyethylenenitrilo)]tetraacetic acid (EGTA), 1 mg/ml bacitracin, 10 ug/ml aprotonin, 1 mg/ml soybean trypsin inhibitor and 50 μM phenylmethylsulphonyl fluoride. All subsequent steps were carried out at 4° C. The cells were pelleted by centrifugation at 750 x g for 10 minutes and resuspended 5×10^6 /ml in solution A containing 50 mM 4-(2-Hydroxyethyl)-1-piperazineethanesulfonic acid (Hepes), 5 mM MgCl2, 1 mM EGTA, 1 mg/ml bacitracin, 10 μg/ml aprotonin, 1 mg/ml soybean trypsin inhibitor and 50 μM phenylmethylsulfonyl fluoride, adjusted to pH 7.4 with NaOH at 4° C. Cells were then disrupted using a Dounce homogeniser (A pestle) 75 strokes. The homogenate was centrifuged at 500 x g for 10 minutes to remove nuclear material and intact cells and the supernatant was centrifuged again at 30000 x g for 30 minutes. The resulting pellet, representing a membrane-enriched preparation was resuspended at a protein concentration of 5 to 10 mg/ml in solution A and stored in liquid nitrogen. For experiments, membranes were thawed and diluted to a concentration of 1 mg/ml with solution A.
Receptor binding assay: Binding assays were carried out in a total volume of 100 ul in binding medium containing 50 mM Hepes, 5 mM MgCl2, 1 mg/ml bacitracin and 1% bovine serum albumin (BSA), adjusted to pH 7.4 with NaOH, unless otherwise indicated. […] Non-specific binding was subtracted from the total binding to obtain specific binding. The membranes were incubated for either 10 minutes at 37° C. or 30 minutes: at 15° C. as indicated.
The binding reactions were terminated at the specified times by rapid filtration on GF/B glass fibre filters (Whatmann, 1.0 μm pore size). Each filter was washed five times with 5 ml of PBS containing 1% BSA at 4° C. (15 s total time) using a Millipore filtration apparatus. Before the addition of membranes the filters were soaked for 24 hours in 5% polyethylenimine at 4° C. and washed with 5 ml of PBS containing 1% BSA immediately prior to use. […] Radioactivity was determined with a Beckmann γ-counter.
When 1n[(Beq - Bt)/(BoLo - Beq Bt)]is plotted as a function of time k1 can be determined from the slope by the following relation k1 =slope x [Beg/(Beg^2 - BoLo)](36) where Bo and Lo are the initial concentrations of receptor and ligand respectively. Bt is the concentration of receptor-ligand complex at time t and Beg is its concentration at equilibrium. Equation (1) takes into account the decrease in free ligand concentration that occurs during the binding reaction.
The first order rate constant of dissociation was determined from the slope of the line obtained by plotting ln(Bt/Beg) as a function of time.
The reactions were terminated and specific binding determined as described in "Experimental Procedures".

bombesin/GRP receptor [6] = target: T2, bombesin/GRP receptor; experiment: [125I]GRP binding to intact Swiss 3T3 cells; parameters: species or system murine; settings: 37° C.
Mr 75,000-85,000 protein = target: T3, Mr 75,000-85,000 protein (Mus musculus, UniProt P21729); experiment: Chemical cross-linking (EGS) of 125I-GRP to the Mr 75,000-85,000 protein in Swiss 3T3 membranes; assay type: binding, murine; settings: 10 min, read-out: 125I-GRP affinity labelling of the Mr 75,000-85,000 protein
T3 construct: Membrane protein (150 μg) prepared from Swiss 3T3 cells as described above; endogenous in cells; host or cells: Swiss 3T3 cells; membrane-enriched fraction prepared with 5 mM Mg2+
T3 sequence (P21729 whole entry): as above
Method: BSA was omitted from all solutions used in the cross-linking studies. At the end of the incubation the membranes were centrifuged at 1000 rpm for 1 minute in a MSE microfuge at room n temperature. The pellets were then resuspended in cross-linking medium containing 4 mM of the cross-linking reagent (EGS) and incubated at 37° C. or 15° C. for 5 minutes or 15 minutes respectively. The reaction was terminated by centrifugation for 1 minute followed by one wash with cross-linking medium and centrifugation. Samples were solubilised in 0.20 ml of 2× sample buffer, (0.2 M Tris-HCl pH 6.8, 10% (w/v) glycerol, 6% sodium dodecyl sulphate (SDS) (w/v), 4% β-mercaptoethanol (v/v), and 2 mM EDTA), immediately heated to 100° C. for 10 minutes and analysed by one dimensional electrophoresis.
SDS-Polyacrylaaide Gel glectrophoresis: Slab gel electrophoresis was performed using 8% acrylamide in the separating gel and 4% in the stacking gel and 0.1% SDS (37). After electrophoresis gels were stained, desrained and dried down onto paper for autoradiography with Fuji x-ray film. Dried gels were exposed for 2-4 days at -70° C. Autoradiograms were scanned using an LKB ultrascan XL densitometer; and the incorporation of radioactivity into the Mr 75,000-85,000 band was quantified using the Ultroscan XL internal digital integrator.
Following incubation at 37° C. for 10 minutes the membranes were pelleted by centrifugation and chemical cross-linking carried out as described in "Experimental Procedures" using 4 mM EGS. The samples were analyzed by SDS-PAGE and scanning densitometry of the autoradiograms as described in "Experimental Procedures".

Swiss 3T3 cells [7] = experiment: Cytosolic Ca2+ concentration in Fura-2 loaded Swiss 3T3 cells; assay type: cell-based, murine; settings: Fura-2 loaded cells
Swiss 3T3 cells [8] = experiment: Stimulation of DNA synthesis in Swiss 3T3 cells; assay type: cell-based, murine; settings: in the presence of insulin
vasopressin receptor [9] = target: T1, vasopressin receptor; experiment: [3H]vasopressin binding to Swiss 3T3 cells; parameters: species or system murine
Swiss 3T3 cells [10] = system: Swiss 3T3 cells; remark: listed apart in the source
[11] = system: bombesin/GRP, bradykinin and vasopressin receptors; experiment: Mitogenic responses elicited through bombesin/GRP, bradykinin and vasopressin receptors; assay type: cell-based, murine
Swiss 3T3 cells [12] = experiment: Vasopressin-induced DNA synthesis in Swiss 3T3 cells; assay type: cell-based, murine
Swiss 3T3 cells [13] = settings: earlier patent application and references 10, 11; cited from earlier work
Swiss 3T3 cells [14] = experiment: Mitogenesis stimulated by VIP in Swiss 3T3 cells; assay type: cell-based, murine
Swiss 3T3 cells [15] = assay type: cell-based, murine
[16] = system: guinea pig pancreatic acini; settings: read-out: 50% inhibition (IC50) of bombesin-stimulated amylase release; cited from earlier work
Swiss 3T3 cells [17] = experiment: Ca2+ mobilisation elicited by GRP in Swiss 3T3 cells; assay type: cell-based, murine; settings: 5 secs
Swiss 3T3 cells [18] = experiment: EGF receptor transmodulation elicited by GRP in Swiss 3T3 cells; assay type: cell-based, murine; settings: 1 min
[19] = target: T4, Mr 75,000-85,000 glycoprotein component of the receptor (Mus musculus, UniProt P21729); experiment: Cross-linking of [125I]GRP to the Mr 75,000-85,000 glycoprotein in intact Swiss 3T3 cells; assay type: binding, murine; settings: 1 nM [125I]GRP, 24° C.
T4 construct: endogenous in cells; host or cells: Swiss 3T3 cells (intact, confluent and quiescent)
T4 sequence (P21729 whole entry): as above
Method: Methods: Swiss 3T3 cells were maintained in culture and assays of DNA synthesis performed as previously described 2,4,6 In all the figures, values shown represent the mean of at least 2 determinations. […] After 10 mins they were washed twice with binding medium, then incubated at 24° C. in 1 ml containing […] ethylene glycol bis(succinimidylsuccinate) at pH 7.4. After 10 mins they were washed twice with cold binding medium and solubilised in 100 μl sample buffer^8,then immediately boiled for 5 mins, and electrophoresed on a 10% polyacrylamide gel.

bombesin/GRP receptor [20] = target: T2, bombesin/GRP receptor; settings: previously published; cited from earlier work

Compound: CC(C)C[C@H](NC(=O)[C@H](CC(C)C)NC(=O)[C@@H](Cc1c[nH]c2ccccc12)NC(=O)[C@H](Cc1ccccc1)NC(=O)[C@@H](Cc1c[nH]c2ccccc12)NC(=O)[C@H](CCC(N)=O)NC(=O)[C@H](CCC(N)=O)NC(=O)[C@@H]1CCCN1C(=O)[C@H](CCCCN)NC(=O)[C@H]1CCCN1C(=O)[C@H](N)CCCNC(=N)N)C(N)=O [antagonist A, D-Arg-D-Pro-Lys-Pro-Gln-Gln-D-Tro-Phe-D-Trp-Leu-Leu-NH2] (H-[dR][dP]KPQQ[dW]F[dW]LL-NH2)
- concentrations effective in inhibiting growth of SCLC ([1]; 5 of 5 cell lines tested: H69, H82, H128, H417 and UCH25): 50 to 150 µM
- IC50 (Swiss 3T3 cells [2]): 90 µM
- inhibition of vasopressin-stimulated DNA synthesis (Swiss 3T3 cells [3]): inhibit
- inhibition of [3H]vasopressin binding (vasopressin receptor [4]): inhibit
- IC50 (bombesin/GRP receptor [5]; 15° C., 30 minutes): 38 µM

Compound: RPPGFSPFR [Bradykinin, bradykinin]
- inhibition of specific binding of [125I]GRP to the cells (bombesin/GRP receptor [6]): did not inhibit
- remaining activity at 1 µM (Mr 75,000-85,000 protein): 95 ± 3%
- change in cytosolic Ca2+ concentration (Swiss 3T3 cells [7]): rapid and transient increase
- stimulation of DNA synthesis (Swiss 3T3 cells [8]): maximal stimulation
- inhibition of [3H]vasopressin binding (vasopressin receptor [9]): did not inhibit
- specific binding of 125I-GRP to membranes (bombesin/GRP receptor [5]): 302 ± 9 fmole/mg protein

Compound: CC(C)C[C@H](NC(=O)[C@H](CC(C)C)NC(=O)[C@@H](Cc1c[nH]c2ccccc12)NC(=O)[C@H](Cc1ccccc1)NC(=O)[C@@H](Cc1c[nH]c2ccccc12)NC(=O)[C@H](CCC(N)=O)NC(=O)[C@@H](Cc1ccccc1)NC(=O)[C@@H]1CCCN1C(=O)[C@H](CCCCN)NC(=O)[C@@H]1CCCN1C(=O)[C@H](N)CCCNC(=N)N)C(N)=O [antagonist D, D-Arg-Pro-Lys-Pro-D-Phe-Gln-D-Trp-Phe-D-Trp-Leu-Leu-NH2] (H-[dR]PKP[dF]Q[dW]F[dW]LL-NH2)
- potency relative to Antagonist A in inhibiting growth of SCLC [1]: 5-10 fold
- effect against DNA synthesis induced by various bombesin-like peptides (Swiss 3T3 cells [10]; 20 μM antagonist D or 1 μm L.PSI.LB, GRP 3.6 nM, bombesin 1.2 nM, litorin 1.8 nM): effective
- potency relative to antagonist A against each mitogen [11]: 5-10 fold
- IC50 (Swiss 3T3 cells [2]): 8.3 µM
- inhibition of vasopressin-stimulated DNA synthesis (Swiss 3T3 cells [3]): inhibit
- inhibition of vasopressin-induced DNA synthesis (Swiss 3T3 cells [12]; 1 uM L.PSI.LB or antagonist D): potent inhibitor
- inhibition of [3H]vasopressin binding (vasopressin receptor [4]): inhibit
- potency as bombesin antagonist relative to antagonist A (Swiss 3T3 cells [13]): 5-10 fold
- inhibition of mitogenesis stimulated by VIP (Swiss 3T3 cells [14]; VIP 3.0 nM, 20 μM antagonist D or 1 μm L.PSI.LB): Neither antagonist D nor [Leu^13 -.PSI.(CH2 NH)Leu^14 ]bombesin inhibited
- inhibition of mitogenesis stimulated by EGF, PDGF, phorbol dibutyrate, cholera toxin and 8-bromo-cAMP (Swiss 3T3 cells [15]; 20 μM antagonist D or 1 μm L.PSI.LB): Neither of them inhibited

Compound: CC(C)C[C@@H](CN[C@@H](CC(C)C)C(N)=O)NC(=O)[C@H](Cc1c[nH]cn1)NC(=O)CNC(=O)[C@@H](NC(=O)[C@H](C)NC(=O)[C@H](Cc1c[nH]c2ccccc12)NC(=O)[C@H](CCC(N)=O)NC(=O)[C@H](CC(N)=O)NC(=O)CNC(=O)[C@H](CC(C)C)NC(=O)[C@H](CCCNC(=N)N)NC(=O)[C@H](CCC(N)=O)NC(=O)[C@@H]1CCC(=O)N1)C(C)C [[Leu^13 -.PSI.(CH2 NH)Leu^14]bombesin] ([pGlu]QRLGNQWAVGH-X1; C-terminus assumed)
- inhibition of specific binding of [125I]GRP to the cells (bombesin/GRP receptor [6]): inhibited
- effect against DNA synthesis induced by various bombesin-like peptides (Swiss 3T3 cells [10]): effective
- inhibition of GRP-induced DNA synthesis (Swiss 3T3 cells [10]): strongly inhibited
- effect on bradykinin-stimulated DNA synthesis (Swiss 3T3 cells [2]; 1 μM L.PSI.LB): no effect
- IC50 [16]: 0.035 µM
- inhibition of vasopressin-induced DNA synthesis (Swiss 3T3 cells [12]): no effect
- block of Ca2+ mobilisation elicited by GRP (Swiss 3T3 cells [17]): blocked
- block of EGF receptor transmodulation elicited by GRP (Swiss 3T3 cells [18]): blocked
- inhibition of mitogenesis stimulated by VIP (Swiss 3T3 cells [14]): Neither antagonist D nor [Leu^13 -.PSI.(CH2 NH)Leu^14 ]bombesin inhibited
- block of cross-linking of [125I]GRP to the Mr 75,000-85,000 glycoprotein [19]: blocked
- inhibition of mitogenesis stimulated by EGF, PDGF, phorbol dibutyrate, cholera toxin and 8-bromo-cAMP (Swiss 3T3 cells [15]): Neither of them inhibited

Compound: CSCC[C@H](NC(=O)[C@H](CC(C)C)NC(=O)CNC(=O)[C@H](Cc1ccccc1)NC(=O)[C@H](Cc1ccccc1)NC(=O)[C@H](CCC(N)=O)NC(=O)[C@H](CCC(N)=O)NC(=O)[C@@H]1CCCN1C(=O)[C@H](CCCCN)NC(=O)[C@@H]1CCCN1C(=O)[C@@H](N)CCCNC(=N)N)C(N)=O [substance P, Arg-Pro-Lys-Pro-Gln-Gln-phe-phe-Gly-Leu-Met-NH2]
- inhibition of binding of [125I]GRP to Swiss 3T3 cells (bombesin/GRP receptor [20]): neither inhibits
- remaining activity at 1 µM (Mr 75,000-85,000 protein; addition at 1μM, 0.5 nM 125I-GRP, 37° C., 10 minutes, None 100): 93 ± 2%
- specific binding of 125I-GRP to membranes (bombesin/GRP receptor [5]): 305 ± 4 fmole/mg protein
